Like-named read-outs stand apart in the source and are kept apart here.
Legend:
[1] = target: human NK1 receptor (Homo sapiens, UniProt P25103); assay: NK1 receptor binding, [3H]substance P displacement, CHO cell membranes
[2] = target: T1, Recombinant human NK3 (hNK3) receptor (Homo sapiens, UniProt P29371); assay: NK3 receptor binding, [3H]SR142801 displacement, membrane preparations
T1 construct: expressed in transfected cells
T1 sequence (P29371 1-465): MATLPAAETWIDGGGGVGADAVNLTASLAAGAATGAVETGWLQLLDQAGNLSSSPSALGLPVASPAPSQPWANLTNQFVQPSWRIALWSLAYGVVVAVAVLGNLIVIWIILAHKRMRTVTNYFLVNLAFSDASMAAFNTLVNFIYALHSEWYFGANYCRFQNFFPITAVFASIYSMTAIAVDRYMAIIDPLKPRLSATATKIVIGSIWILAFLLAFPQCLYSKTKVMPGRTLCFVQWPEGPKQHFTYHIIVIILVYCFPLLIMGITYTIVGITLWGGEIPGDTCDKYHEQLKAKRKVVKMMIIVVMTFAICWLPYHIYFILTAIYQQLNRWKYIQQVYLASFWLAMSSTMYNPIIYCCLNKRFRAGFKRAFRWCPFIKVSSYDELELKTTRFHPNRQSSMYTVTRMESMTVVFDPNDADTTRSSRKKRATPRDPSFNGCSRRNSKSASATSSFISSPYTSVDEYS
In short: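 Room-temperature, 90-min filtration binding assay using about 2.5 μg recombinant receptor membranes per well; separation on polyethyleneimine-treated glass-fibre (GF/C) filters and liquid scintillation read-out, with 10 μM SB222200 for nonspecific binding.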

[3] = first value of the cell pKi NK1/NK3, human NK1 receptor, [3H]substance P
[4] = second value of the cell pKi NK1/NK3, hNK3 receptor, [3H]SR142801
[5] = first value of the cell NK1/NK3, read-out: pKi NK1 (converted)
[6] = second value of the cell NK1/NK3, read-out: pKi NK3 (converted)

Sequence of human NK1 receptor (P25103 whole entry): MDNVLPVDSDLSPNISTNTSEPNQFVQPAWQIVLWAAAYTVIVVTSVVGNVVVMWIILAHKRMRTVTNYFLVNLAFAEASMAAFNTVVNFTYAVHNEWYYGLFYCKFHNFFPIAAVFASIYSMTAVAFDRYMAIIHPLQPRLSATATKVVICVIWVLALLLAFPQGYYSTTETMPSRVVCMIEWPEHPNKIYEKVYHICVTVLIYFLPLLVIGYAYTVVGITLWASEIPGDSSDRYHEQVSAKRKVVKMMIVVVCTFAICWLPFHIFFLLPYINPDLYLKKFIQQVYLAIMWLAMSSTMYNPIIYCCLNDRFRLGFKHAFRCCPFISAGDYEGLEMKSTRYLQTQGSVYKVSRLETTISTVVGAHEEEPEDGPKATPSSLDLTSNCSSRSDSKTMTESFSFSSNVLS

`CN(C(=O)C(C)(C)c1cc(C(F)(F)F)cc(C(F)(F)F)c1)c1cnc(N[C@H]2CC[C@H](O)CC2)cc1-c1ccccc1Cl` [Example 60, trans-2-(3,5-Bis-trifluoromethyl-phenyl)-N-[4-(2-chloro-phenyl)-6-(4-hydroxy-cyclohexylamino)-pyridin-3-yl]-N-methyl-isobutyramide] showed a Ki [1, 3] of 1.26 nM and a Ki [2, 4] of 7.94 nM.

For `Cc1ccccc1-c1cc(N2CC[C@H](O)[C@H]2CO)ncc1N(C)C(=O)C(C)(C)c1cc(C(F)(F)F)cc(C(F)(F)F)c1` [Example 261, (2R,3S)-2-(3,5-Bis-trifluoromethyl-phenyl)-N-[6-(3-hydroxy-2-hydroxymethyl-pyrrolidin-1-yl)-4-o-tolyl-pyridin-3-yl]-N-methyl-isobutyramide], the Ki [1, 5] was 1.29 nM and the Ki [2, 6] was 0.912 nM.

In the case of `CN(C(=O)C(C)(C)c1cc(C(F)(F)F)cc(C(F)(F)F)c1)c1cnc(N2CCC(S(C)(=O)=O)C2)cc1-c1ccccc1Cl` (racemic) [Example 66, (RS)-2-(3,5-Bis-trifluoromethyl-phenyl)-N-[4-(2-chloro-phenyl)-6-(3-methanesulfonyl-pyrrolidin-1-yl)-pyridin-3-yl]-N-methyl-isobutyramide], the Ki [1, 3] is reported as 1.48 nM and the Ki [2, 4] is reported as 1.29 nM.

Compound `Cc1ccccc1-c1cc(N2C[C@H](O)C[C@@H](O)C2)ncc1N(C)C(=O)C(C)(C)c1cc(C(F)(F)F)cc(C(F)(F)F)c1` [Example 179, (3R,5R)-2-(3,5-Bis-trifluoromethyl-phenyl)-N-(3,5-dihydroxy-4′-o-tolyl-3,4,5,6-tetrahydro-2H-[1,2′]bipyridinyl-5′-yl)-N-methyl-isobutyramide] has a Ki [1, 3] of 1.51 nM and a Ki [2, 4] of 4.07 nM.

`CN(C(=O)C(C)(C)c1cc(C(F)(F)F)cc(C(F)(F)F)c1)c1cnc(N2CCC[C@H]2CO)cc1-c1ccccc1` [Example 289, (S)-2-(3,5-Bis-trifluoromethyl-phenyl)-N-[6-(2-hydroxymethyl-pyrrolidin-1-yl)-4-phenyl-pyridin-3-yl]-N-methyl-isobutyramide] gave a Ki [1, 5] of 3.02 nM and a Ki [2, 6] of 5.01 nM.

`CN(C(=O)C(C)(C)c1cc(C(F)(F)F)cc(C(F)(F)F)c1)c1cnc(N2C[C@H](O)C[C@H]2CO)cc1-c1ccccc1` [Example 201, (2S,4R)-2-(3,5-Bis-trifluoromethyl-phenyl)-N-[6-(4-hydroxy-2-hydroxymethyl-pyrrolidin-1-yl)-4-phenyl-pyridin-3-yl]-N-methyl-isobutyramide] was tested, and the Ki [1, 3] was 1.48 nM and the Ki [2, 4] was 8.71 nM.

`Cc1ccc(F)cc1-c1cc(N2CCC[C@H]2CO)ncc1N(C)C(=O)C(C)(C)c1cc(C(F)(F)F)cc(C(F)(F)F)c1` [Example 166, (S)-2-(3,5-Bis-trifluoromethyl-phenyl)-N-[4-(5-fluoro-2-methyl-phenyl)-6-(2-hydroxymethyl-pyrrolidin-1-yl)-pyridin-3-yl]-N-methyl-isobutyramide] gave a Ki [1, 3] of 3.8 nM and a Ki [2, 4] of 1.2 nM.

Compound `Cc1cc(F)ccc1-c1cc(N2CC[C@H](N)C2)ncc1N(C)C(=O)C(C)(C)c1cc(C(F)(F)F)cc(C(F)(F)F)c1` [Example 103, (S)-N-[6-(3-Amino-pyrrolidin-1-yl)-4-(4-fluoro-2-methyl-phenyl)-pyridin-3-yl]-2-(3,5-bis-trifluoromethyl-phenyl)-N-methyl-isobutyramide] has a Ki [1, 3] of 1.66 nM and a Ki [2, 4] of 15.8 nM.

For `CCCCCCN(CCO)c1cc(-c2ccccc2Cl)c(N(C)C(=O)C(C)(C)c2cc(C(F)(F)F)cc(C(F)(F)F)c2)cn1` [Example 148, 2-(3,5-Bis-trifluoromethyl-phenyl)-N-{4-(2-chloro-phenyl)-6-[hexyl-(2-hydroxy-ethyl)-amino]-pyridin-3-yl}-N-methyl-isobutyramide], the Ki [1, 3] was 2.09 nM and the Ki [2, 4] was 12 nM.

For `CN(C(=O)C(C)(C)c1cc(C(F)(F)F)cc(C(F)(F)F)c1)c1cnc(N[C@@H]2CCCC[C@H]2O)cc1-c1ccccc1Cl` (racemic) [Example 151, (1RS,2RS)-2-(3,5-Bis-trifluoromethyl-phenyl)-N-[4-(2-chloro-phenyl)-6-(2-hydroxy-cyclohexylamino)-pyridin-3-yl]-N-methyl-isobutyramide], the Ki [1, 3] was 1.15 nM and the Ki [2, 4] was 27.5 nM.

`Cc1cc(C)cc(C(C)(C)C(=O)N(C)c2cnc(N3CCC[C@H]3CO)cc2-c2ccccc2C)c1` [Example 19, (S)-2-(3,5-Dimethyl-phenyl)-N-[6-(2-hydroxymethyl-pyrrolidin-1-yl)-4-o-tolyl-pyridin-3-yl]-N-methyl-isobutyramide] was tested, and the Ki [1, 3] was 2.95 nM and the Ki [2, 4] was 5.13 nM.

Compound `CN(C(=O)C(C)(C)c1cc(C(F)(F)F)cc(C(F)(F)F)c1)c1cnc(N2CCC[C@H]2CO)cc1-c1cccc(Cl)c1Cl` [Example 285, (S)-2-(3,5-Bis-trifluoromethyl-phenyl)-N-[4-(2,3-dichloro-phenyl)-6-(2-hydroxymethyl-pyrrolidin-1-yl)-pyridin-3-yl]-N-methyl-isobutyramide] has a Ki [1, 5] of 1.58 nM and a Ki [2, 6] of 1.86 nM.

`CN(C(=O)C(C)(C)c1cc(C(F)(F)F)cc(C(F)(F)F)c1)c1cnc(N2CC[C@H](O)[C@H]2CO)cc1-c1ccccc1Cl` [Example 138, (2R,3S)-2-(3,5-Bis-trifluoromethyl-phenyl)-N-[4-(2-chloro-phenyl)-6-(3-hydroxy-2-hydroxymethyl-pyrrolidin-1-yl)-pyridin-3-yl]-N-methyl-isobutyramide] showed a Ki [1, 3] of 1.66 nM and a Ki [2, 4] of 1 nM.

For `Cc1cc(F)ccc1-c1cc(N2CC[C@H](NS(C)(=O)=O)C2)ncc1N(C)C(=O)C(C)(C)c1cc(C(F)(F)F)cc(C(F)(F)F)c1` [Example 104, (S)-2-(3,5-Bis-trifluoromethyl-phenyl)-N-[4-(4-fluoro-2-methyl-phenyl)-6-(3-methanesulfonylamino-pyrrolidin-1-yl)-pyridin-3-yl]-N-methyl-isobutyramide], the Ki [1, 3] was 1.62 nM and the Ki [2, 4] was 6.76 nM.

Work on `CN(C(=O)C(C)(C)c1cc(C(F)(F)F)cc(C(F)(F)F)c1)c1cnc(N2CC[C@H](O)[C@H]2CO)cc1-c1cccc(Cl)c1Cl` [Example 271, (2R,3S)-2-(3,5-Bis-trifluoromethyl-phenyl)-N-[4-(2,3-dichloro-phenyl)-6-(3-hydroxy-2-hydroxymethyl-pyrrolidin-1-yl)-pyridin-3-yl]-N-methyl-isobutyramide] yielded a Ki [1, 5] of 3.02 nM and a Ki [2, 6] of 1.38 nM.

In the case of `CN(C(=O)C(C)(C)c1cc(C(F)(F)F)cc(C(F)(F)F)c1)c1cnc(N2C[C@H](O)C[C@H]2CO)cc1-c1ccc(F)cc1CO` [Example 223, (2S,4R)-2-(3,5-Bis-trifluoromethyl-phenyl)-N-[4-(4-fluoro-2-hydroxymethyl-phenyl)-6-(4-hydroxy-2-hydroxymethyl-pyrrolidin-1-yl)-pyridin-3-yl]-N-methyl-isobutyramide], the Ki [1, 5] is reported as 0.708 nM and the Ki [2, 6] is reported as 3.09 nM.

Compound `CN(C(=O)C(C)(C)c1cc(C(F)(F)F)cc(C(F)(F)F)c1)c1cnc(N2CCCCC2CO)cc1-c1ccccc1Cl` (racemic) [Example 141, (RS)-2-(3,5-Bis-trifluoromethyl-phenyl)-N-[4′-(2-chloro-phenyl)-2-hydroxymethyl-3,4,5,6-tetrahydro-2H-[1,2′]bipyridinyl-5′-yl]-N-methyl-isobutyramide] has a Ki [1, 3] of 6.46 nM and a Ki [2, 4] of 18.6 nM.

`CN(C(=O)C(C)(C)c1cc(C(F)(F)F)cc(C(F)(F)F)c1)c1cnc(N2CC[C@@H](O)[C@H](O)C2)cc1-c1ccccc1Cl` (racemic) [Example 188, (3RS,4RS)-2-(3,5-Bis-trifluoromethyl-phenyl)-N-[4′-(2-chloro-phenyl)-3,4-dihydroxy-3,4,5,6-tetrahydro-2H-[1,2′]bipyridinyl-5′-yl]-N-methyl-isobutyramide] gave a Ki [1, 3] of 1.32 nM and a Ki [2, 4] of 15.5 nM.

In the case of `CN(C(=O)C(C)(C)c1cc(C(F)(F)F)cc(C(F)(F)F)c1)c1cnc(N2CCCC[C@H]2CO)cc1-c1ccccc1Cl` [Example 161, (S)-2-(3,5-Bis-trifluoromethyl-phenyl)-N-[4′-(2-chloro-phenyl)-2-hydroxymethyl-3,4,5,6-tetrahydro-2H-[1,2′]bipyridinyl-5′-yl]-N-methyl-isobutyramide], the Ki [1, 3] is reported as 11.5 nM and the Ki [2, 4] is reported as 6.76 nM.

For `Cc1ccc(F)cc1-c1cc(N(CCO)CCO)ncc1N(C)C(=O)C(C)(C)c1cc(C(F)(F)F)cc(C(F)(F)F)c1` [Example 128, N-[6-[Bis-(2-hydroxy-ethyl)-amino]-4-(5-fluoro-2-methyl-phenyl)-pyridin-3-yl]-2-(3,5-bis-trifluoromethyl-phenyl)-N-methyl-isobutyramide], the Ki [1, 3] was 2.63 nM and the Ki [2, 4] was 5.62 nM.

With `CC(=O)N[C@H]1C[C@@H](CO)N(c2cc(-c3ccccc3Cl)c(N(C)C(=O)C(C)(C)c3cc(C(F)(F)F)cc(C(F)(F)F)c3)cn2)C1` [Example 40, (2S,4S)-N-[6-(4-Acetylamino-2-hydroxymethyl-pyrrolidin-1-yl)-4-(2-chloro-phenyl)-pyridin-3-yl]-2-(3,5-bis-trifluoromethyl-phenyl)-N-methyl-isobutyramide] the Ki [1, 3] was 0.646 nM and the Ki [2, 4] was 1.02 nM.

With `CCN(CCO)c1cc(-c2ccccc2Cl)c(N(C)C(=O)C(C)(C)c2cc(C(F)(F)F)cc(C(F)(F)F)c2)cn1` [Example 55, 2-(3,5-Bis-trifluoromethyl-phenyl)-N-{4-(2-chloro-phenyl)-6-[ethyl-(2-hydroxy-ethyl)-amino]-pyridin-3-yl}-N-methyl-isobutyramide] the Ki [1, 3] was 3.31 nM and the Ki [2, 4] was 11.2 nM.
